Experimental findings from patent US10421756B2, “Heterobicyclic N-aminophenyl-amides as inhibitors of histone deacetylase” (Rodin Therapeutics, Inc., priority 2015, dated 2019) are described below.

Type in all cases: binding
One assay addresses HDAC1 (Homo sapiens (Human), UniProt Q13547). The assay is described as follows: Reporter displacement assay (HDAC1). To be noted: for Kd: reporter probe displacement, Cheng Prusoff. The protocol:
[The procedure below names another target; the source lists this target under the same test.] HDAC2 containing a C-terminal HIS-Tag (Proteros) and fluorescently-labeled anti-HIS-antibody are diluted in one vial in assay buffer 50 mM Tris, pH 8.0, 1 mM DTT, 150 mM NaCl, and 0.01% Tween20. Components are pre-incubated for 30 min, then a small volume of reporter probe (Proteros) is added from a highly concentrated stock and incubation is continued for another 30 min.
Ten μl/well of pre-formed complex are transferred into 384 well assay plates (Corning). Compounds to be profiled are serially diluted from […] in DMSO and 60 nl are added to assay plates by pintool transfer (CybiWell, Cybio).
For Kd determination, percent probe displacement values are calculated for each compound concentration and plotted against the compound concentration. […] Since the reporter probe is used at a concentration reflecting its own Kd value, compound Kd values can be calculated according to the Cheng Prusoff equation.

Assay [1] deals with T1, HDAC2 (Homo sapiens (Human), UniProt Q92769). The assay is described as follows: Reporter displacement assay (HDAC2).
The target in assay [2] is T1, HDAC2. Briefly: Reporter displacement assay (HDAC2). To be noted: reporter probe displacement, Cheng Prusoff. The procedure:
HDAC2 containing a C-terminal HIS-Tag (Proteros) and fluorescently-labeled anti-HIS-antibody are diluted in one vial in assay buffer 50 mM Tris, pH 8.0, 1 mM DTT, 150 mM NaCl, and 0.01% Tween20. Components are pre-incubated for 30 min, then a small volume of reporter probe (Proteros) is added from a highly concentrated stock and incubation is continued for another 30 min. Final concentrations after adding the reporter probe amount to 20 nM HDAC2, 4 nM antibody, and 180 nM probe.
Ten μl/well of pre-formed complex are transferred into 384 well assay plates (Corning). Compounds to be profiled are serially diluted from […] in DMSO and 60 nl are added to assay plates by pintool transfer (CybiWell, Cybio). Fluorescence intensity signal is read after 4 h in a Pherastar FS (BMG Labtech) at 337/665 nm.
For Kd determination, percent probe displacement values are calculated for each compound concentration and plotted against the compound concentration. IC50-like values (corresponding to 50% probe displacement) are calculated using standard fitting algorithms. Since the reporter probe is used at a concentration reflecting its own Kd value, compound Kd values can be calculated according to the Cheng Prusoff equation.
In the table, “A” indicates a Kd value of less than 0.1 μM; “B” a Kd value of between 0.1 μM and 0.5 μM; “C” a Kd value of greater than 0.5 μM and less than or equal to 5.0 μM; and “D” a Kd value of greater than 5.0 μM.

Sequence of HDAC1 (Q13547 whole entry): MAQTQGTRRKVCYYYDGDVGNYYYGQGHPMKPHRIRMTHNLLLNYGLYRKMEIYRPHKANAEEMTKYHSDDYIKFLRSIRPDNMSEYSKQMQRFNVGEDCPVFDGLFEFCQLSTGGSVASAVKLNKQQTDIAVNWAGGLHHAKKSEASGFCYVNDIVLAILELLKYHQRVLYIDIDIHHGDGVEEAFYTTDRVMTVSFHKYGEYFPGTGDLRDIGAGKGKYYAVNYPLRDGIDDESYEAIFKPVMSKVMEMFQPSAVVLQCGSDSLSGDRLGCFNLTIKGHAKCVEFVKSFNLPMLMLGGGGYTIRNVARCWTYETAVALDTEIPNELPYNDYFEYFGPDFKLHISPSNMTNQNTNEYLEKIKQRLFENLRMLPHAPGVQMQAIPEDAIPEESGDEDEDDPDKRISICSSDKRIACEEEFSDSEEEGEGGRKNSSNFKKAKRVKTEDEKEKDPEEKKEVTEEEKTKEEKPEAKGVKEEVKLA
T1 sequence (Q92769 whole entry): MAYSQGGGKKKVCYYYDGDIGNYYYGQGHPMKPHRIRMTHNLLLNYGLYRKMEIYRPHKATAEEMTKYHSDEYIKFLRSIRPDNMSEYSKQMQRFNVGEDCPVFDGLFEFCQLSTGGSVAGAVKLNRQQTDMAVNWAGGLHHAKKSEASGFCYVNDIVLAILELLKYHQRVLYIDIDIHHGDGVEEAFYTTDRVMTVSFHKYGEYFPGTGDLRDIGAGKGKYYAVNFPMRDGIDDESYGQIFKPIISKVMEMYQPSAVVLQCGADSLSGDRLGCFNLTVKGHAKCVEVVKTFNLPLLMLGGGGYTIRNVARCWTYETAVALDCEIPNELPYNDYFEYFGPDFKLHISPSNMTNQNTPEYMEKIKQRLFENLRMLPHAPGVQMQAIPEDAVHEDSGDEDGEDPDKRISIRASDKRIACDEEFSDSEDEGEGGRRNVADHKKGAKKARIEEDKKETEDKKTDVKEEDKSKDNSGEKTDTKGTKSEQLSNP

Take `COc1ccc(-c2ccc(N)c(NC(=O)N3Cc4ccncc4C3)c2)cc1` [Compound 139]: the residence time at HDAC1 amounted to 1450 min; on HDAC2 [1], 2260 min. The Kd on HDAC1 and on HDAC2 [2] was below 100 nM throughout.

Regarding `Nc1ccc(-c2ccc(F)cc2)cc1NC(=O)N1CC2CN(C(=O)OC3CC3)CC2C1` (stereo not drawn) [Compound 158], the residence time at HDAC1 was 1220 min; on HDAC2 [1], 2140 min. For the same molecule, the values for the Kd on HDAC1 and on HDAC2 [2] were below 100 nM and 100 to 500 nM, respectively.

For `CC(C)(C)OC(=O)N1CCC2(CC1)CN(C(=O)Nc1cc(-c3ccc(F)cc3)ccc1N)C2` [Compound 166], the residence time on HDAC1 turned out to be 84 min; on HDAC2 [1], 521 min. For the same molecule, the Kd on HDAC1 and at HDAC2 [2] was 500 to 5000 nM throughout.

As for `Nc1ccc(-c2ccco2)cc1NC(=O)N1Cc2ccncc2C1` [Compound 168], the results for the residence time at HDAC1 and on HDAC2 [1] were 1380 min and 5570 min, respectively. For the same molecule, the Kd on HDAC1 and at HDAC2 [2] was below 100 nM each time.

Consider `Nc1ccc(-c2ccc(F)cc2)cc1NC(=O)N1CC2(CCNCC2)C1` [Compound 169], for which the residence time at HDAC1 is 120 min; at HDAC2 [1] it was 716 min. In addition, the Kd at HDAC1 and on HDAC2 [2] was 500 to 5000 nM throughout.

Take `Nc1ccc(-c2ccc(F)cc2)cc1NC(=O)N1CC2CN(C(=O)C3CC3)CC2C1` (stereo not drawn) [Compound 125]: the residence time on HDAC1 was found to be 788 min; at HDAC2 [1], 1410 min. In addition, the values for the Kd on HDAC1 and at HDAC2 [2] were below 100 nM and 100 to 500 nM, respectively.

With `CNC(=O)N1CCc2nc(C(=O)Nc3cc(-c4ccc(F)cc4)ccc3N)sc2C1` [Compound 152], the residence time at HDAC1 came out at 1360 min; at HDAC2 [1], 2330 min. The Kd at HDAC1 and on HDAC2 [2] was below 100 nM throughout.

Consider `Nc1ccc(-c2ccc(F)cc2)cc1NC(=O)N1CC2CCC(C1)O2` [Compound 111], for which the residence time was found to be 34 min on HDAC1 and 61 min on HDAC2 [1]. The Kd on HDAC1 and at HDAC2 [2] was above 5000 nM throughout.

Turning to `Nc1ccc(-c2ccncc2)cc1NC(=O)N1CC2CN(C3COC3)CC2C1` (stereo not drawn) [Compound 129], the residence time on HDAC1 worked out at 724 min; on HDAC2 [1], 1700 min. For the same molecule, the Kd – broadly, the free concentration of one partner at which half of the binding sites on the other are occupied at equilibrium, for simple one-to-one binding – at HDAC1 was below 100 nM; on HDAC2 [2] it was 100 to 500 nM.

Take `Nc1ccc(-c2ccc(F)cc2)cc1NC(=O)N1CCC2(CCNC2)CC1` [Compound 118]: the residence time at HDAC1 came to 1180 min; at HDAC2 [1] it was 636 min. The figures for the equilibrium dissociation constant (Kd) at HDAC1 and at HDAC2 [2] were below 100 nM and 100 to 500 nM, respectively.

As for `CCOC(=O)N1CC2CN(C(=O)Nc3cc(-c4ccc(F)cc4)ccc3N)CC2C1` (stereo not drawn) [Compound 155], the results for the residence time on HDAC1 and at HDAC2 [1] were 1630 min and 1720 min, respectively. The values for the Kd on HDAC1 and on HDAC2 [2] were 100 to 500 nM and 500 to 5000 nM, respectively.

In the case of `Nc1ccc(-c2ccc(F)cc2F)cc1NC(=O)N1Cc2ccncc2C1` [Compound 133], the residence time at HDAC1 is 1300 min; at HDAC2 [1] it was 1460 min. The Kd at HDAC1 was below 100 nM; on HDAC2 [2] it was 100 to 500 nM.

In the case of `Nc1ccc(-c2ccncc2)cc1NC(=O)N1Cc2ccncc2C1` [Compound 102], the figures for the residence time at HDAC1 and on HDAC2 [1] were 1240 min and 1410 min, respectively. For the same molecule, the Kd is below 100 nM on HDAC1 and 100 to 500 nM on HDAC2 [2].

For `Nc1ccc(-c2ccc(F)cc2)cc1NC(=O)N1CCC2(CCOC2)CC1` [Compound 173], the figures for the residence time at HDAC1 and on HDAC2 [1] were 1210 min and 1250 min, respectively. Also, the Kd was below 100 nM at HDAC1 and 100 to 500 nM on HDAC2 [2].

Take `CC(C)(C)OC(=O)N1CCC2(CCN(C(=O)Nc3cc(-c4ccc(F)cc4)ccc3N)CC2)C1` [Compound 161]: the figures for the residence time at HDAC1 and on HDAC2 [1] were 1170 min and 2640 min, respectively. Moreover, the Kd on HDAC1 is below 100 nM; on HDAC2 [2] it was 100 to 500 nM.

Consider `Nc1ccc(-c2ccc(C(F)(F)F)cn2)cc1NC(=O)N1Cc2ccncc2C1` [Compound 167], for which the residence time at HDAC1 was 140 min; at HDAC2 [1], 864 min. In addition, the Kd on HDAC1 and on HDAC2 [2] was 500 to 5000 nM throughout.

As for `Nc1ccc(-c2ccncc2)cc1NC(=O)N1Cc2nccnc2C1` [Compound 101], the residence time came out at 906 min on HDAC1 and 1930 min at HDAC2 [1]. Also, the Kd on HDAC1 was below 100 nM; at HDAC2 [2], 100 to 500 nM.

`Nc1ccc(-c2ccc(F)cc2)cc1NC(=O)c1nc2c(s1)CNCC2` [Compound 147]: the residence time on HDAC1 is 1340 min; at HDAC2 [1] it was 1620 min. Also, the Kd was below 100 nM at HDAC1 and 100 to 500 nM on HDAC2 [2].

`Nc1ccc(-c2ccc(F)cc2)cc1NC(=O)N1CC2CCC(C1)N2C=O` [Compound 117]: the residence time at HDAC1 is 29 min; at HDAC2 [1] it was 36 min. The Kd is above 5000 nM on HDAC1 and 500 to 5000 nM on HDAC2 [2].

Consider `Nc1ccc(-c2ccc(F)cc2)cc1NC(=O)N1CC2CN(C(=O)OC3CCC3)CC2C1` (stereo not drawn) [Compound 159], for which the residence time on HDAC1 came to 1060 min; on HDAC2 [1], 2640 min. Besides, the values for the Kd on HDAC1 and on HDAC2 [2] were below 100 nM and 100 to 500 nM, respectively.

Consider `Nc1ccc(-c2ccc(F)cc2)cc1NC(=O)N1CCC2(CCN(CCF)C2)CC1` [Compound 143], for which the residence time on HDAC1 stood at 1200 min; at HDAC2 [1] it was 1490 min. For the same molecule, the Kd was below 100 nM at HDAC1 and 100 to 500 nM on HDAC2 [2].

In the case of `CC(C)(C)OC(=O)N1C2CCC1CN(C(=O)Nc1cc(-c3ccc(F)cc3)ccc1N)C2` [Compound 112], the residence time at HDAC1 turned out to be 9 min; on HDAC2 [1], 38 min. Moreover, the Kd at HDAC1 and on HDAC2 [2] was above 5000 nM throughout.

Regarding `Nc1ccc(-c2ccncn2)cc1NC(=O)N1Cc2ccncc2C1` [Compound 103], the values for the residence time on HDAC1 and at HDAC2 [1] were 330 min and 1960 min, respectively. For the same molecule, the Kd at HDAC1 and at HDAC2 [2] was 500 to 5000 nM throughout.

For `Nc1ccc(-c2ccc(F)cc2)cc1NC(=O)N1CC2(CCCCO2)C1` [Compound 153], the figures for the residence time at HDAC1 and on HDAC2 [1] were 457 min and 1290 min, respectively. For the same molecule, the Kd lay within 100 to 500 nM on HDAC1 and 500 to 5000 nM at HDAC2 [2].

Consider `Nc1ccc(-c2ccncc2)cc1NC(=O)N1CCC2(CC1)CCN(C1COC1)C2` [Compound 165], for which the residence time at HDAC1 stood at 259 min; at HDAC2 [1], 1720 min. Besides, the figures for the Kd on HDAC1 and at HDAC2 [2] were 500 to 5000 nM and 100 to 500 nM, respectively.

`Cn1cc(-c2ccc(N)c(NC(=O)N3Cc4ccncc4C3)c2)cn1` [Compound 145]: the figures for the residence time on HDAC1 and at HDAC2 [1] were 876 min and 1250 min, respectively. The Kd on HDAC1 and on HDAC2 [2] was 100 to 500 nM each time.

With `Nc1ccc(-c2cccnc2)cc1NC(=O)N1Cc2ccncc2C1` [Compound 134], the residence time at HDAC1 is 192 min; at HDAC2 [1] it was 790 min. The Kd at HDAC1 and at HDAC2 [2] was 100 to 500 nM throughout.

Take `Nc1ccc(-c2ccc(F)cc2)cc1NC(=O)N1Cc2nccnc2C1` [Compound 119]: the residence time at HDAC1 is 1500 min; on HDAC2 [1], 2150 min. Further, the Kd at HDAC1 and on HDAC2 [2] was 100 to 500 nM throughout.

In the case of `Nc1ccc(-c2ccc(F)cc2)cc1NC(=O)c1cn2c(n1)CCCC2` [Compound 150], the residence time on HDAC1 was 1080 min; at HDAC2 [1], 1010 min. Moreover, the Kd at HDAC1 was in the range of 100 to 500 nM; at HDAC2 [2], 500 to 5000 nM.

Consider `Nc1ccc(-c2ccc(F)cc2)cc1NC(=O)N1CC2CNCC2C1` (stereo not drawn) [Compound 114], for which the residence time at HDAC1 was determined as 127 min; on HDAC2 [1], 1470 min. Besides, the figures for the Kd at HDAC1 and on HDAC2 [2] were above 5000 nM and 500 to 5000 nM, respectively.

Regarding `CC(C)(C)OC(=O)N1CCC2CN(C(=O)Nc3cc(-c4ccc(F)cc4)ccc3N)CC2C1` (stereo not drawn) [Compound 171], the residence time on HDAC1 was 765 min; at HDAC2 [1], 1610 min. For the same molecule, the equilibrium dissociation constant (Kd) at HDAC1 and at HDAC2 [2] was 100 to 500 nM in each case.

In the case of `Nc1ccc(-c2ccoc2)cc1NC(=O)N1Cc2ccncc2C1` [Compound 151], the residence time is 1130 min at HDAC1 and 6280 min at HDAC2 [1]. The Kd at HDAC1 and on HDAC2 [2] was below 100 nM in each case.

In the case of `Nc1ccc(-c2ccc(F)c(F)c2)cc1NC(=O)N1Cc2nccnc2C1` [Compound 137], the results for the residence time on HDAC1 and on HDAC2 [1] were 552 min and 1380 min, respectively. Moreover, the Kd at HDAC1 and on HDAC2 [2] was 100 to 500 nM throughout.
